Measurements taken from article PMC9779606, “Synthesis, Structural Characterization and Biological Activity Evaluation of Novel Cu(II) Complexes with 3-(trifluoromethyl)phenylthiourea Derivatives” (International Journal of Molecular Sciences, 2022).
Converted amounts (≈) assume the structure as drawn.

What follows are compounds tested on M. tuberculosis Spec. 210 (assay: Tuberculostatic activity, Microplate Alamar Blue Assay (MABA)). Settings: M. tuberculosis Spec. 210, patient isolate resistant to PAS, INH, ETB, RMP.
Format: cell-based, Mycobacterium tuberculosis
Procedure: The synthesized compounds were examined in vitro for their tuberculostatic activity using MABA method (Microplate Alamar Blue Assay method). […] The inoculum was prepared from fresh LJ culture in Middlebrook 7H9 Broth medium with OADC, adjusted to a no. 1 McFarland tube, and diluted 1:20. […] Each test compound stock solution was diluted in Middlebrook 7H9 Broth medium with OADC by fourfold, the final highest concentration to be tested. Compounds were diluted serially in sterile 96-well microtiter plates using 100 μL Middlebrook 7H9 Broth medium with OADC. […] A growth control containing no antibiotic and a sterile control without inoculation were also prepared on each plate. The plates were incubated at 37 °C for a week. After the incubation period, 30 μL of Alamar blue solution was added to each well, and the plate was re-incubated for 24 h. Growth is indicated by a color change from blue to pink and the lowest concentration of compound that prevented the color change was noted as its MIC. Isoniazid (INH), Rifampicin (RMP), Streptomycin (SM), and Ethambutol (EMB) as reference drugs were used for comparison.
Work on `FC(F)(F)c1cccc([N-]C(=S)Nc2cccc(Br)c2)c1.FC(F)(F)c1cccc([N-]C(=S)Nc2cccc(Br)c2)c1.[Cu+2]` [Cu4, Copper(II) Complex with 1-(3-bromophenyl)-3-[3-(trifluoromethyl)phenyl] thiourea] yielded an MIC of 4 µg/mL. For `FC(F)(F)c1cccc([N-]C(=S)NCc2ccccc2)c1.FC(F)(F)c1cccc([N-]C(=S)NCc2ccccc2)c1.[Cu+2]` [Cu3, Copper(II) Complex with 1-benzyl-3-[3-(trifluoromethyl)phenyl]thiourea], the MIC was 16 µg/mL. `FC(F)(F)c1cccc([N-]C(=S)NCCc2ccccc2)c1.FC(F)(F)c1cccc([N-]C(=S)NCCc2ccccc2)c1.O.[Cu+2]` [Cu1, Copper(II) Complex with 1-(2-phenylethyl)-3-[3-(trifluoromethyl)phenyl]thiourea] showed an MIC of 16 µg/mL. Compound `CC(NC(=S)[N-]c1cccc(C(F)(F)F)c1)c1ccccc1.CC(NC(=S)[N-]c1cccc(C(F)(F)F)c1)c1ccccc1.[Cu+2]` (racemic) [Cu2, Copper(II) Complex with 1-(1-phenylethyl)-3-[3-(trifluoromethyl)phenyl]thiourea] has an MIC of 8 µg/mL. With `O.O=[N+]([O-])c1cc(NC(=S)[N-]c2cccc(C(F)(F)F)c2)ccc1Cl.O=[N+]([O-])c1cc(NC(=S)[N-]c2cccc(C(F)(F)F)c2)ccc1Cl.[Cu+2]` [Cu5, Copper(II) Complex with 1-(4-chloro-3-nitrophenyl)-3-[3-(trifluoromethyl)phenyl]thiourea] the MIC was 4 µg/mL.

Same assay, conditions: Mycobacterium tuberculosis, M. tuberculosis Spec. 210, patient isolate resistant to PAS, INH, ETB, RMP, read-out: MIC
`CO[C@H]1/C=C/O[C@@]2(C)Oc3c(C)c(O)c4c(O)c(c(/C=N/N5CCN(C)CC5)c(O)c4c3C2=O)NC(=O)/C(C)=C\C=C\[C@H](C)[C@H](O)[C@@H](C)[C@@H](O)[C@@H](C)[C@H](OC(C)=O)[C@@H]1C` [Rifampicin (RMP), Rifampicin, reference compound] gave an MIC of 32 µg/mL (≈ 38.9 µM). `[H]/N=C(/N)N[C@H]1[C@H](O)[C@@H](O)[C@H](O[C@@H]2O[C@@H](C)[C@](O)(C=O)[C@H]2O[C@@H]2O[C@@H](CO)[C@H](O)[C@@H](O)[C@@H]2NC)[C@@H](N/C(N)=N\[H])[C@@H]1O` [Streptomycin (SM), Streptomycin, reference compound] showed an MIC of 16 µg/mL (≈ 27.5 µM). For `NNC(=O)c1ccncc1` [Isoniazid (INH), Isoniazid, reference compound], the MIC was 16 µg/mL (≈ 117 µM). `CC[C@@H](CO)NCCN[C@@H](CC)CO` [Ethambutol (EMB), Ethambutol, reference compound] was tested, and the MIC was 32 µg/mL (≈ 157 µM).
